# Measurements published in article PMC6681021 (Pharmaceutics, 2019).
# Where “and” joins values, the source holds several entries; their conditions need not be identical. Identical values can stand only once. Like-named read-outs stand apart in the source and are kept apart here.
# How the values were obtained:
# [1] = Gastric and intestinal first-pass effect: intraportal infusion, intraduodenal and intragastric instillation in rats; assay type: in vivo, Sprague-Dawley rats
# Method: Rats were fasted overnight with free access to water. Cannulae were inserted into the carotid artery and the cecal vein [13, 14]. […] All sample collection and processing procedures were identical to those described above.
# (§1) Pharmacokinetic parameters, including AUC, apparent volume of distribution at steady state (Vss), mean residence time (MRT), and time-averaged total body (CL), renal (CLR), and nonrenal (CLNR) clearances, were calculated by noncompartmental analysis (WinNonlin, Pharsight Corporation, Mountain View, CA, USA) using standard methods. AUC values were calculated using the trapezoidal rule–extrapolation method. The peak plasma concentration (Cmax) and time to reach Cmax (Tmax) were obtained directly from the experimental data. The mean values of clearance, terminal half-life, and Vss were calculated using the harmonic mean method.
# [2] = Tissue distribution after intravenous administration in rats; assay type: in vivo; settings: Sprague-Dawley, rat; every tissue except brain, mesentery and fat; 30 min and 2 h after iv 10 mg/kg; read-out: Tissue-to-plasma (T/P) ratio
# Method: Rats were handled and processed as described previously [10]. […] After 30 min and 2 h (n = 4 each), as much blood as possible was collected from the carotid artery. Blood samples were immediately centrifuged, and plasma was collected. The rats were sacrificed by cervical dislocation, approximately 1 g of each brain, fat, heart, kidney, large intestine, liver, lung, mesentery, muscle, small intestine, spleen, and stomach was removed, rinsed with phosphate-buffered solution (pH 7.4), and blotted dry with paper towels to remove any remaining blood. Each tissue sample was added to four volumes of homogenizing buffer, homogenized using a tissue homogenizer (T25 Ultra-Turrax, IKA Labortechnik, Staufen, Germany) and centrifuged at 8000 × g for 10 min.
# [3] = Biliary excretion after intravenous infusion in rats; assay type: in vivo, Sprague-Dawley rats; settings: 1-min iv infusion 10 mg/kg, 0–24 h bile, n = 3
# Method: The jugular vein of each rat was cannulated. The abdomen was opened and the bile duct was cannulated with polyethylene tubing. The incision was closed with surgical sutures and each rat was kept warm under an electric light. Each rat was maintained in the supine position during the entire experiment. […] Bile samples were collected over various time periods, from 0–1, 1–2, 2–4, 4–6, and 6–24 h.
# [4] = cited from earlier work
# [5] = Pharmacokinetics after oral administration of tofacitinib to rats; assay type: in vivo, Sprague-Dawley rats; settings: for CL renal / Cmax / Tmax / bioavailability: male, Sprague-Dawley; for CL renal / Cmax / Tmax / bioavailability / AUC: rat; for CL renal: plasma and urine; for Cmax / Tmax / bioavailability / AUC: plasma; for bioavailability: dose-normalized oral AUC / AUC of 10 mg/kg iv, read-out: F (bioavailability); for Dose-normalized AUC: normalized to 10 mg/kg; for AUC: male Sprague-Dawley rats
# Method: The pretreatment and surgical procedures for oral and intravenous administration were similar to those described previously. For oral administration, the rats were fasted overnight with free access to water. The rats were anesthetized with ketamine (200 mg/kg), and their carotid arteries were cannulated using polyethylene tubing (Clay Adams, Parsippany, NJ, USA) for blood sampling. For intravenous administration, the rats were anesthetized with ketamine (200 mg/kg), and their jugular veins and carotid arteries were cannulated for drug administration and blood sampling, respectively. Rats were allowed to recover for 4–5 h after surgical procedures. The rats were not restrained during the experimental period and had free access to water and food.
# Blood samples (110–220 μL) were collected via the carotid artery at times 0 (prior to drug administration), 5, 15, 30, 45, 60, 90, 120, 180, 240, 360, 480, 600, and 720 min. Urine and gastrointestinal tract samples were also obtained over 24 h were processed as described above for the corresponding samples collected after intravenous administration.
# Two microliters of hydrocortisone (5 mg/mL) and 40 μL of 20% ammonia solution were added to 100 μL aliquots of biological samples and vortex-mixed for 30 s using a vortex mixer. Each solution was extracted with 1.5 mL of ethyl acetate by centrifugation at 12,000 rpm for 5 min. The organic layer was collected and dried (Dry Thermobath, Eyela, Tokyo, Japan) under a gentle stream of nitrogen gas at 40 °C. The samples were reconstituted in 130 μL of 20% acetonitrile, and 50 μL of resuspended samples were analyzed by HPLC [12].
# The mobile phase consisted of a 69.5:30.5 (v/v) mixture of 10 mM ammonium acetate buffer (pH 5.0) and acetonitrile, respectively, with a flow rate of 1.0 mL/min. Column effluent was monitored by a UV detector at 287 nm.
# as §1
# [6] = Hepatic first-pass effect: 30-min intravenous vs intraportal infusion in rats; assay type: in vivo, Sprague-Dawley rats; settings: for AUC / CL renal / MRT / clearance / half-life / Vd: Sprague-Dawley, rat, plasma; for half-life: read-out: Terminal half-life; for Vd: read-out: Vss
# Method: The carotid artery and jugular vein were handled as described previously. In addition, the vein from the cecum was cannulated and the cannula was pushed forward about 4 cm toward the liver through the portal vein to minimize the damage from blood flowing into the portal vein [13, 14]. […] Blood samples were collected from the carotid artery at times 0, 15, 30 (at the end of the infusion), 31, 35, 45, 60, 90, 150, 210, 270, 390, 510, and 630 min, with all sample collection and processing procedures identical to those described above.
# as §1
# [7] = 30-min intraportal infusion, 10 mg/kg (n = 6)
# [8] = Sprague-Dawley, rat, plasma, 10 mg/kg, 30-min intraportal infusion, 10 mg/kg (n = 6)
# [9] = Sprague-Dawley, rat, plasma, 10 mg/kg, intraduodenal instillation
# [10] = Sprague-Dawley, rat, plasma, po, 10 mg/kg, intragastric instillation
# [11] = Sprague-Dawley, rat, plasma, 30-min intraportal infusion, 10 mg/kg (n = 6)
# [12] = 30-min intraportal infusion, 10 mg/kg (n = 7)
# [13] = 30-min intravenous infusion, 10 mg/kg
smiles,measurement,setting,value
"C[C@@H]1CCN(C(=O)CC#N)C[C@@H]1N(C)c1ncnc2[nH]ccc12 [tofacitinib, 3-[(3R,4R)-4-methyl-3-[methyl-(7H-pyrrolo[2,3-day]pyrimidin-4-l)amino]piperidin-1-yl]-3-oxopropanenitril]",AUC after intraduodenal instillation as % of that after intraportal administration,[1]; 10 mg/kg,50.7%
same,Ae0–24 h,[1]; [7],5.82 ± 2.32 % of dose
same,CLNR,[1]; [7],38.3 ± 6.16 mL/min/kg
same,Oral dose absorbed into the systemic circulation,"[1]; 50.7–21.3%, 10 mg/kg",29.4%
same,CL renal,[1]; [8],2.44 ± 1.23 mL/min/kg
same,Cmax,[1]; [8],5180 ± 586 ng/mL
same,Tmax,[1]; [8],27.5 min
same,AUC,"[1]; Sprague-Dawley, rat, plasma, 10 mg/kg, 30-min intraportal infusion, 10 mg/kg (n = 6), fasted",4530 ng·h/mL
same,AUC,[1]; [9],2300 ng·h/mL
same,CL renal,[1]; [9],5.72 ± 2.62 mL/min/kg
same,Cmax,[1]; [9],1550 ± 1930 ng/mL
same,Tmax,[1]; [9],38.8 min
same,AUC,[1]; [10],2230 ng·h/mL
same,CL renal,[1]; [10],7.08 ± 2.91 mL/min/kg
same,Cmax,[1]; [10],716 ± 255 ng/mL
same,Tmax,[1]; [10],63.8 min
same,MRT,[1]; [11],53 min
same,clearance,[1]; [11],38.4 ± 8.47 mL/min/kg
same,half-life,"[1]; Sprague-Dawley, rat, plasma, 30-min intraportal infusion, 10 mg/kg (n = 6), read-out: Terminal half-life",44.8 ± 14.2 min
same,Vd,"[1]; Sprague-Dawley, rat, plasma, 30-min intraportal infusion, 10 mg/kg (n = 6), read-out: Vss",1.9 ± 0.369 L/kg
same,Ae0–24 h,"[1]; intraduodenal instillation, 10 mg/kg",8.30 ± 5.10 % of dose
same,Ae0–24 h,"[1]; intragastric instillation, 10 mg/kg",8.90 ± 3.00 % of dose
same,Kp,[2],> 1
same,Excreted in bile,[3],0.703 ± 0.303 % of the intravenous dose
same,AUC of tofacitinib reduced in pretreated rats,"[4]; pretreated with dexamethasone, inducer of CYP3A1/2",56%
same,AUC of tofacitinib greater in pretreated rats,"[4]; pretreated with fluconazole, inhibitor of CYP2C11",39%
same,AUC of tofacitinib greater in pretreated rats,"[4]; pretreated with ketoconazole, inhibitor of CYP3A1/2",46%
same,AUC of tofacitinib reduced in pretreated rats,"[4]; pretreated with rifampin, inducer of CYP2C11",26%
same,Time to detection in plasma after oral administration,[5]; all four oral doses,≤ 5 min
same,Ae0–24 h,[5]; all oral doses,less than 17.2%
same,F in rats,[5]; based on calculations using the same intravenous and oral doses,29.1–33.8%
same,CL renal,[5]; oral 10 mg/kg,11.6 ± 2.87 mL/min/kg
same,CL renal,[5]; oral 20 mg/kg,6.97 ± 3.95 mL/min/kg
same,CL renal,[5]; oral 50 mg/kg,7.61 ± 2.82 mL/min/kg
same,CL renal,[5]; oral 100 mg/kg,3.37 ± 2.52 mL/min/kg
same,Cmax,[5]; oral 10 mg/kg,1130 ± 774 ng/mL
same,Tmax,[5]; oral 10 mg/kg,15.7 min
same,bioavailability,[5]; oral 10 mg/kg,29.1%
same,Cmax,[5]; oral 20 mg/kg,3130 ± 1270 ng/mL
same,Tmax,[5]; oral 20 mg/kg,15.7 min
same,bioavailability,[5]; oral 20 mg/kg,39.3%
same,Cmax,[5]; oral 50 mg/kg,5620 ± 2180 ng/mL
same,Tmax,[5]; oral 50 mg/kg,34.4 min
same,bioavailability,[5]; oral 50 mg/kg,69.7%
same,Cmax,[5]; oral 100 mg/kg,13100 ± 5480 ng/mL
same,Tmax,[5]; oral 100 mg/kg,170 min
same,bioavailability,[5]; oral 100 mg/kg,119%
same,Ae0–24 h,[5]; oral 10 mg/kg,11.3 ± 4.60 % of dose
same,Orally administered dose absorbed from the gastrointestinal tract,[5]; oral 10 mg/kg,approximately 96.8%
same,Unabsorbed fraction (Funabs),"[5]; oral 10 mg/kg, at 24 h",3.16%
same,Dose-normalized AUC,[5]; oral 10 mg/kg,99.4 µg·min/mL and 99.4 ± 35.5 µg·min/mL
same,GI24 h (recovered unchanged from entire gastrointestinal tract at 24 h),"[5]; oral 10 mg/kg, 10 mg/kg",3.16 % of dose and 3.16 ± 5.12 % of dose
same,Orally administered dose eliminated by first-pass metabolism,"[5]; oral 10 mg/kg, 100% − (3.16% + 29.1%)",approximately 67.7%
same,Ae0–24 h,[5]; oral 20 mg/kg,10.0 ± 6.51 % of dose
same,GI24 h (recovered unchanged from entire gastrointestinal tract at 24 h),[5]; oral 20 mg/kg,3.13 ± 3.27 % of dose
same,Dose-normalized AUC,[5]; oral 20 mg/kg,135 µg·min/mL and 135 ± 26.9 µg·min/mL
same,Ae0–24 h,[5]; oral 50 mg/kg,17.2 ± 3.98 % of dose
same,GI24 h (recovered unchanged from entire gastrointestinal tract at 24 h),[5]; oral 50 mg/kg,2.77 ± 3.96 % of dose
same,Dose-normalized AUC,[5]; oral 50 mg/kg,238 µg·min/mL and 238 ± 56.0 µg·min/mL
same,Ae0–24 h,[5]; oral 100 mg/kg,13.0± 9.47 % of dose
same,GI24 h (recovered unchanged from entire gastrointestinal tract at 24 h),[5]; oral 100 mg/kg,0.772± 0.905 % of dose
same,Dose-normalized AUC,[5]; oral 100 mg/kg,407 µg·min/mL and 407 ± 179 µg·min/mL
same,Slope of plot of AUC versus dose,"[5]; oral, dose and AUC ratios based on 10 mg/kg",4.65
same,AUC,[5]; oral 10 mg/kg,1660 ng·h/mL
same,AUC,[5]; oral 20 mg/kg,4480 ng·h/mL
same,AUC,[5]; oral 50 mg/kg,19900 ng·h/mL
same,AUC,[5]; oral 100 mg/kg,67900 ng·h/mL
same,AUC after intraportal administration as % of that after intravenous administration,[6]; 10 mg/kg,58.0%
same,CL faster after intraportal than intravenous administration,[6]; 10 mg/kg,67%
same,CLNR faster after intraportal than intravenous administration,[6]; 10 mg/kg,60%
same,Vss higher after intraportal than intravenous administration,[6]; 10 mg/kg,50%
same,Ae0–24 h,[6]; [12],10.7 ± 9.42 % of dose
same,CLNR,[6]; [12],38.5 ± 10.4 mL/min/kg
same,Ae0–24 h,[6]; [13],12.5 ± 5.20 % of dose
same,CLNR,[6]; [13],24.0 ± 6.46 mL/min/kg
same,AUC,[6]; [12],4030 ng·h/mL
same,CL renal,[6]; [12],5 ± 4.69 mL/min/kg
same,MRT,[6]; [12],59.6 min
same,clearance,[6]; [12],43.8 ± 11 mL/min/kg
same,half-life,[6]; [12],42.4 ± 10.4 min
same,Vd,[6]; [12],2.55 ± 0.72 L/kg
same,AUC,[6]; [13],6950 ng·h/mL
same,CL renal,[6]; [13],2.34 ± 2.9 mL/min/kg
same,MRT,[6]; [13],67.5 min
same,clearance,[6]; [13],26.3 ± 8.85 mL/min/kg
same,half-life,[6]; [13],46.2 ± 12.5 min
same,Vd,[6]; [13],1.7 ± 0.737 L/kg
